# Laboratory results published in patent publication US20260014129A1, “MITOCHONDRIAL PYRUVATE METABOLISM INHIBITORS FOR TREATING CHRONIC MYELOID LEUKEMIA” (The University Court of the University of Glasgow, priority 2022, published 2026).
# What was measured:
# CML CD34+ cells [1] = test: LC-MS steady state metabolite analysis of primary CML CD34+ cells; format: cell-based, human
# Method: (§1) Cells were counted using a CASY counter with the following parameters: E-cur 7.5-22.5, N-cur 5.25-20.5. Cell number was multiplied by peak volume (size) and this number was used to calculate volume of solvent to extract in. Cells were pelleted by centrifugation (400 RCF, 10 minutes, room temperature) at which medium was removed for YSI analysis. Cells were then washed twice with ice cold PBS (Calcium and Magnesium free: Thermo Fisher Scientific) with pulse centrifugation (12,000RCF, 15 seconds, 4° C.) used between and after washes. Cells were then extracted in LC-grade ACN:MeOH:H2O solvent (−20° C., 5:3:2) by disrupting the pellet by pipetting followed by a 5 second vortex. Finally, debris was pelleted by centrifugation (16,000RCF, 10 minutes, 4° C.), supernatant transferred to LC-MS glass vials that were stored at −80° C. until analysis.
# The LC system composed of a ZIC-pHILIC column (SeQuant, 150×2.1 mm, 5 μm, Merck KGaA) with a ZIC-pHILIC guard column (SeQuant, 20×2.1 mm) with an UltiMate 3000 HPLC system (Thermo Fisher Scientific). The aqueous mobile-phase solvent was 20 mM ammonium carbonate-0.1% ammonium hydroxide solution and with acetonitrile being used for organic mobile phase. A linear biphasic LC gradient was conducted from 80% organic to 80% aqueous for 15 min for a total run time of 22 min. The column temperature was maintained at 45° C. flow rate set to 200 μL/min.
# The MS used in this study was a qExactive Plus Orbitrap Mass Spectrometer (Thermo Fisher Scientific) operating in polarity switching mode. The MS set up was calibrated using a custom CALMIX in both ionization modes before analysis and a tune file targeted towards the lower m/z range was used. Full scan (MS1) data was acquired in both ionization modes in profile mode at 70,000 resolution (at m/z range 75-1000), an automatic gain control (AGC) target of 1×10^6 (max fill time of 250 ms), with spray voltages +4.5 kV (capillary +50V, tube: […], skimmer: +20V) and −3.5 kV (capillary −50V, tube: […], skimmer: −20V) and s-lens RF level of 50 for the front optics. The capillary temperature 375° C., probe temperature 50′C, sheath gas flow rate 25, auxiliary gas flow rate 15a.u. 15 and sweep gas flow rate of 1a.u.
# (§2) The peak areas of different metabolites were determined using Tracefinder 4.1 software (Thermo Fisher Scientific). Metabolites were identified by accurate mass of the singly charged ion and by known retention times on the pHILIC column. A commercially available standard compound mix (Merck: MSMLS-1EA) had been analysed previously on our LC-MS system to determine accurate ion masses and retention times. The 13C labelling was determined by quantifying peak areas for the accurate mass of all isotopologues of each metabolite.
# Two independent experiments were performed, data normalised to first sample in each experiment, processed through Autoplotter (56), samples as experiments, and normalised data as replicates. […] For MSDC-0160 treated samples a batch correction (to non-drug control) was used prior to analysis using Metabonalyst. Volcano plots were generated, and an FDR adjusted t-test threshold 0.1 was utilised. Note both fold changes and p-values are log transformed. Top-25 scoring metabolites are included in heatmap.
# CML CD34+ cells [2] = test: 13C stable isotope tracing (glucose, glutamine, palmitate) in primary CML CD34+ cells; format: cell-based, human
# Method: For conjugation of palmitate, a 20 mM stock was made in 100% EtOH. This was incubated on a shaking heater, 60° C. until the solution clarified. The palmitate was then added to 10% BSA (ultra-fatty acid free in EBSS, Roche, 03117057001) to give a palmitate:BSA ratio of 1:3 BSA. This solution was left for 15 min in water bath (37° C.), and then added to final concentration in complete medium. For cell line experiments, the medium was RPMI with 10% dialysed FBS and 1% penicillin/streptomycin. For tracing experiments 11 mM ^13C6 glucose was added to glucose-free RPMI.
# as §1, §2
# Biological and technical replicates were processed through Autoplotter (56) and natural abundance was corrected for. Fraction of enrichment was calculated as m+2 and above. For CML samples treated with or without imatinib, multiple paired T-tests were conducted on Log 10 transformed values in Graphpad Prism. The correction for multiple comparisons was the two-stage step-up method of Benjamini, Krieger and Yekutieli with an FDR (Q) value of 10%. For volcano plots Log 10 FC vs Log 10 (q value) are plotted with q values>5% in red and >10% in blue. For normal vs CML comparisons, the process was the same with the exception that unpaired t-tests were used. For PC activity in normal vs CML, this is denoted by fraction m+3. For imatinib vs untreated we look at relative activity to PDH. IE., the m+3/m+2 ratio and conducted multiple t-tests with correction for multiple comparisons being the two-stage step-up method of Benjamini, Krieger and Yekutieli with an FDR (Q) value of 10%.
# CML CD34+ cells [3] = test: Colony forming cell (CFC) assay of CML CD34+ cells; format: cell-based, human; conditions: 72 hours, n=6 CML patients
# normal CD34+ cells = test: Colony forming cell (CFC) assay of normal CD34+ cells; format: cell-based, human; conditions: 72 hours, n=3 healthy donors
# FBS (Bos taurus) = system: T1, FBS (Bos taurus); conditions: as previously reported (ref 44); cited from earlier work
# T1 construct: host or cells: FBS in culture medium
# [4] = imatinib 2 μM, 48 hours, CML CD34+ cells
# T1 sequence (P02769 25-607): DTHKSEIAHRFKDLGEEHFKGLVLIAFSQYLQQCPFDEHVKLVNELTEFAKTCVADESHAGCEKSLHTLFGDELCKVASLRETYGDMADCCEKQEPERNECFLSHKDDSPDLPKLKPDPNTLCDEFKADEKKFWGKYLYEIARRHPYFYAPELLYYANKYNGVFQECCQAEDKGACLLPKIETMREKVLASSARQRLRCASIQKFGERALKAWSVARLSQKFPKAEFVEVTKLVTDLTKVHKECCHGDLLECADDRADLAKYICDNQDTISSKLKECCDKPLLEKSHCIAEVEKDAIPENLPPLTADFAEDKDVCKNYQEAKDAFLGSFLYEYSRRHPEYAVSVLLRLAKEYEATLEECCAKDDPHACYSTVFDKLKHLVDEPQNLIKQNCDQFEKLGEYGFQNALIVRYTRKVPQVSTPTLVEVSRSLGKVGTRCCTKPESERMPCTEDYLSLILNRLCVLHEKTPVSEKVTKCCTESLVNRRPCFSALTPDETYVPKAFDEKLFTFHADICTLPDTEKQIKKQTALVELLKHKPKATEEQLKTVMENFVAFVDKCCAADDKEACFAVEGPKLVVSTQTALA
smiles,measurement,setting,value
Cc1ccc(NC(=O)c2ccc(CN3CCN(C)CC3)cc2)cc1Nc1nccc(-c2cccnc2)n1 [imatinib],ATP levels,"CML CD34+ cells [1]; imatinib 2 μM, 48 hours",trend towards reduced ATP levels
same,"oxidative stress, cellular redox and TCA cycle metabolites, steady state","CML CD34+ cells [1]; imatinib 2 μM, 48 hours",decreases
same,AMP/ATP ratio,"CML CD34+ cells [1]; imatinib 2 μM, 48 hours, n=4 patient samples",significant increase in AMP/ATP ratio
same,glucose incorporation (13C-glucose labelling) in sorted CML CD34+CD38- cells,"CML CD34+ cells [2]; imatinib 2 μM, 24 hours, n=3",statistically significant reduction
same,relative PC/PDH activity in CML CD34+CD38- cells,"CML CD34+ cells [2]; imatinib 2 μM, 24 hours, n=3, p-value=0.0870",increased in all three patient samples
same,"PC relative to PDH contribution of glucose (m+3/m+2 ratio in malate, citrate, aspartate)",CML CD34+ cells [2]; [4],increased
same,glucose contribution to metabolite fraction labelling (13C6 glucose),CML CD34+ cells [2]; [4],reduced
same,glutamine contribution to metabolite fraction labelling (13C5 glutamine),CML CD34+ cells [2]; [4],reduced
same,palmitate contribution to metabolite fraction labelling (13C16 palmitate),CML CD34+ cells [2]; [4],not significantly different
same,labelled fractions of TCA cycle metabolites affected,"CML CD34+ cells [2]; imatinib, primary CML CD34+ samples, not shown",only affected m+2 fractions
same,number of colonies,CML CD34+ cells [3]; 2 μM imatinib alone,reduced the number of colonies
same,"CFC potential of normal CD34+ cells, single agent",normal CD34+ cells,no significant effect
CCc1ccc(C(=O)COc2ccc(CC3SC(=O)NC3=O)cc2)nc1 (stereo not shown) [MSDC-0160],dose at which steady state analysis showed significant metabolic changes,"CML CD34+ cells [1]; primary CML CD34+ samples, 24 hours, highest dose",100 µM
same,binding to FBS,FBS (Bos taurus),high FBS binding
same,m+2 and m+3 fractions of TCA cycle metabolites,"CML CD34+ cells [2]; 20 or 100 μM MSDC-0160, primary CML CD34+ samples",significant decreases to both m+2 and m+3 fractions
same,inhibition of glucose oxidation in primitive CD34+CD38- population,"CML CD34+ cells [2]; compared with CD34+CD38+ progenitor population, data not shown",to a similar extent as in the CD34^+CD38^+ progenitor population
same,inhibition of labelling in stromal co-culture,"CML CD34+ cells [2]; presence of stromal cells, 24-hour culture, 50 uM",also achieved in the presence of stromal cells
same,total glucose contribution and m+3 contribution to TCA cycle metabolites,"CML CD34+ cells [2]; primary CML CD34+ samples, 24 hours",reduced both total glucose contribution and m+3 contribution to TCA cycle metabolites in a dose-dependent manner
same,dose required to fully inhibit labelling,"CML CD34+ cells [2]; primary CML CD34+ samples, medium with Albumax II",100 µM
same,"number of colonies, MSDC-0160 added to imatinib",CML CD34+ cells [3]; 20 or 50 μM MSDC-0160 plus 2 μM imatinib,further concentration-dependent reduction
same,"CFC potential of normal CD34+ cells, single agent",normal CD34+ cells,no significant effect
same,"CFC potential of normal CD34+ cells, combination treatment",normal CD34+ cells; MSDC-0160 plus 2 μM imatinib,no significant effect
